According to patent publication US5153219A, “Thiocarbamate sulfoxide composition for deterring ethanol ingestion” (Faiman; Morris D., priority 1991, dated 1992):
Like-named read-outs stand apart in the source and are kept apart here. Each block holds one molecule with its values, some of them ahead of it.

Key:
[1] = system: liver mitochondrial low Km ALDH; conditions: Hart et al., cited from earlier work; for dose at which 50% ALDH inhibition (ID50) occurred: intraperitoneal (IP) administration
[2] = target: T1, rat liver mitochondrial low Km ALDH (Rattus norvegicus, UniProt P11884); test: Liver aldehyde dehydrogenase determination in vivo after dosing rats; conditions: for in vivo ALDH inhibition relative to comparators (in words): versus DETC-Me, disulfiram or other disulfiram metabolites; for ED50: rat, 8 h, read-out: dose required to inhibit 50% of the low Km ALDH
T1 construct: Mitochondria were isolated from the liver of untreated rats; from tissue; host or cells: liver mitochondria of male Sprague-Dawley derived rats
T1 sequence (P11884 20-519): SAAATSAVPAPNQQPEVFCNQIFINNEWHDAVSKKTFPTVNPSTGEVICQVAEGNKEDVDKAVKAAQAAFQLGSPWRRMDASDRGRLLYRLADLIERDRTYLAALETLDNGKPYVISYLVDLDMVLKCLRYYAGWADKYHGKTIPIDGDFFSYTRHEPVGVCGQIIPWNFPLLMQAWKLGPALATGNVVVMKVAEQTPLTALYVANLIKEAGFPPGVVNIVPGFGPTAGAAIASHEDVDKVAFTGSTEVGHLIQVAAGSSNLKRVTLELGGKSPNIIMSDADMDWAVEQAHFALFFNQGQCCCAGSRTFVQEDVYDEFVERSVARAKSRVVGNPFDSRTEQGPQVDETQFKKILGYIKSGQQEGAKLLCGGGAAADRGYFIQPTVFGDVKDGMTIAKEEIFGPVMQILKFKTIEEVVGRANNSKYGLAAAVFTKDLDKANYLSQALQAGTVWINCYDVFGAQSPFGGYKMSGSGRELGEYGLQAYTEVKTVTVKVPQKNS
Description: 1. Drug Doses. Doses of DETC-Me SO studied were 1.3 mg/kg, 2.6 mg/kg, 5.2 mg/kg, 10.3 mg/kg and 20.6 mg/kg.
2. Animals. Male Sprague Dawley derived rats weighing 200-400 g were used. The rats were bred from a resident colony maintained in the Animals Care Unit at the University of Kansas. Rats were maintained on a 12-hour light-dark cycle with access to food and water ad lib until the night before an experiment, at which time food was removed. Animals were fasted for 12 hours prior to drug administration.
3. Timing. In these in vivo studies, rats were fasted 12 hours before beginning the experiment. All experiments were carried out in the morning. Rats were treated with the doses of DETC-Me SO or DETC-Me described above, which were dissolved in polyethylene glycol 200. Eight hours later, the rats were anesthetized with carbon dioxide and then decapitated. The liver was quickly removed and the low Km aldehyde dehydrogenase determined. Each data point on FIG. 4 represents an average of four rats. Control rats were treated with […] only, and each control data point also represents an average of four rats.
4. Aldehyde Dehydrogenase Determination. The liver from drug-treated and control rats was homogenized in 0.25M sucrose and differential centrifugation was carried out to isolate the mitochondrial fraction. The mitochondria were solubilized with sodium deoxycholate, and mitochondrial low Km and total (high and low) aldehyde dehydrogenase activity determined by the method of S.O.C. Tottmar et al., cited above.

[3] = Plasma acetaldehyde determination after ethanol challenge; format: in vivo, rat; conditions: male rats
Description: Rats maintained as described in Ex. 4, fasted for 18 hours, were given 10.3 mg/kg of the DETC-Me SO intraperitoneally, dissolved in polyethylene glycol 200 and then challenged eight hours later with a dose of ethanol (1 g/kg; 20% v/v) also administered intraperitoneally. The rats were anesthetized with phenobarbital 30 minutes after alcohol administration and blood was taken by aortic puncture, being drawn into a heparinized syringe. Plasma acetaldehyde was determined by the method of C.O.P. Eriksson et al., Anal. Biochem., 80, 116 (1977). Plasma concentrations were determined based on a standard curve obtained with known concentrations of acetaldehyde. Control rats were treated with 1 ml/kg of polyethylene glycol 200.

[4] = target: T1, rat liver mitochondrial low Km ALDH; test: In vitro inhibition of rat liver mitochondrial low Km ALDH (isolated mitochondria incubation); format: biochemical
Description: 1. Drug Concentration. Concentrations of DETC-Me sulfoxide ("DETC-Me SO") studied were 0.2 μM, 2.0 μM, 20 μM and 200 μM. Concentrations of DDTC-Me SO studied were 0.5 μM, 2.5 μM, 10 μM, 25 μM, 50 μM and 100 μM.
2. Animal Liver Preparation. Male Sprague-Dawley derived rats weighing 200-400 g were anesthetized with carbon dioxide and then decapitated. The livers from untreated rats were homogenized in 0.25M sucrose and differential centrifugation carried out to isolate the mitochondrial fraction. The mitochodria were solubilized with sodium deoxycholate, and mitochondrial low Km ALDH activity determined by the method of S.O.C. Tottmar et al., Biochem. J., 135, 577 (1973).
3. In Vitro Incubation. Mitochondria were isolated from the liver of untreated rats as described in section (2) and resuspended in 0.1M phosphate buffer (pH=7.4). Incubations contained 2 mg of mitochondrial protein, to which was added DETC-Me SO or DDTC-Me SO in the concentrations described above. The DETC-Me SO or DDTC-Me SO was dissolved in ethanol and the incubations carried out for one hour. Control incubations contained ethanol alone.
4. Aldehyde Dehydrogenase Analysis. At the end of the incubation, the mitochondria were isolated by centrifugation, resuspended in 0.25M sucrose buffer and solubilized with deoxycholate. Low Km ALDH activity was determined by the method of S.O.C. Tottmar et al., cited above.

[5] = system: liver mitochondrial low Km ALDH; conditions: Hart et al.; cited from earlier work

Structure (SMILES): CCN(CC)C(=S)SC [DDTC-Me, diethyldithiocarbamate-methyl ester]
dose at which 50% ALDH inhibition (ID50) occurred [1]: 15.5 mg/kg

Structure (SMILES): CCN(CC)C(=S)SSC(=S)N(CC)CC [disulfiram, tetraethylthiuram disulfide]
dose at which 50% ALDH inhibition (ID50) occurred [1]: 56.2 mg/kg

in vivo ALDH inhibition relative to comparators (in words) [2]: substantially more potent
in vivo ALDH inhibition relative to comparators (in words) ([2]; listed as DETC-Me sulfoxide): about twice as effective
ED50 ([2]; male rats, intraperitoneal (IP), liver taken eight hours after dosing, FIG. 4): 3.6 mg/kg
in vitro activity as inhibitor of low Km ALDH (in words) [4]: extremely potent inhibitor
in vitro activity as inhibitor of low Km ALDH (in words) ([4]; listed as DETC-Me sulfoxide): active in vitro
Structure (SMILES): CCN(CC)C(=O)[S+](C)[O-] (stereo not drawn) [DETC-Me SO, S-Methyl-N,N-Diethylthiolcarbamate Sulfoxide]
plasma acetaldehyde ([3]; 10.3 mg/kg IP in polyethylene glycol 200, then 1 g/kg ethanol (20% v/v) IP, FIG. 5): approximately 900 μM
effect on plasma acetaldehyde after an ethanol challenge (in words) ([3]; 10.3 mg/kg IP, 1 g/kg ethanol IP): markedly increase plasma acetaldehyde

Structure (SMILES): CCN(CC)C(=O)SC [DETC-Me, S-Methyl-N,N-Diethylthiolcarbamate]
ED50 ([2]; ip): 6.5 mg/kg
inhibition at 200 µM ([4]; 1 h, read-out: inhibition of rat liver mitochondrial low Km ALDH): 8%
in vitro activity as inhibitor of low Km ALDH (in words) [4]: not
potency as inhibitor of liver mitochondrial low Km ALDH relative to DDTC-Me, DDTC or disulfiram (in words) [1]: more potent inhibitor
dose at which 50% ALDH inhibition (ID50) occurred [1]: 6.5 mg/kg
in vitro inhibition of liver mitochondrial low Km ALDH (in words) [5]: not an effective in vitro inhibitor
